Data as given in ChEMBL document CHEMBL1130962, “Selective alpha-1a adrenergic receptor antagonists. Effects of pharmacophore regio- and stereochemistry on potency and selectivity” (Bioorg Med Chem Lett, 1998).

Experiments:
[1] = target: T1, Alpha-1B adrenergic receptor (Homo sapiens, UniProt P35368); experiment: Binding affinity against human Alpha-1b adrenergic receptor was evaluated by cloned receptor binding assay
T1 sequence (P35368 whole entry): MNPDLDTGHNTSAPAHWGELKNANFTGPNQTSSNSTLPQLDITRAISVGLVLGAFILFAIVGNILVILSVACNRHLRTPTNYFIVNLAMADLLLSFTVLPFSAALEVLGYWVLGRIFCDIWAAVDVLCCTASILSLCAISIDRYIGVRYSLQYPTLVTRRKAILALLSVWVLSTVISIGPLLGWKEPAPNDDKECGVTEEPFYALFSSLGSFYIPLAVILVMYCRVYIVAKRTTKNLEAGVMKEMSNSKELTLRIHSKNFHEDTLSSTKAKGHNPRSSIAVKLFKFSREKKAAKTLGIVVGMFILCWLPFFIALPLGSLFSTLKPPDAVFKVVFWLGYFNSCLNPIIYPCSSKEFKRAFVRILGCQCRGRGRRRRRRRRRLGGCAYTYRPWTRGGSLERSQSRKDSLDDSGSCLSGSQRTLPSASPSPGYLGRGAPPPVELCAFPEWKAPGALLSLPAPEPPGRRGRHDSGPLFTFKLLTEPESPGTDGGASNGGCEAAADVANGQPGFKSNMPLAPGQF

[2] = target: T2, Alpha-1A adrenergic receptor (Homo sapiens, UniProt P35348); experiment: Binding affinity against human Alpha-1a adrenergic receptor was evaluated by cloned receptor binding assay
T2 sequence (P35348 whole entry): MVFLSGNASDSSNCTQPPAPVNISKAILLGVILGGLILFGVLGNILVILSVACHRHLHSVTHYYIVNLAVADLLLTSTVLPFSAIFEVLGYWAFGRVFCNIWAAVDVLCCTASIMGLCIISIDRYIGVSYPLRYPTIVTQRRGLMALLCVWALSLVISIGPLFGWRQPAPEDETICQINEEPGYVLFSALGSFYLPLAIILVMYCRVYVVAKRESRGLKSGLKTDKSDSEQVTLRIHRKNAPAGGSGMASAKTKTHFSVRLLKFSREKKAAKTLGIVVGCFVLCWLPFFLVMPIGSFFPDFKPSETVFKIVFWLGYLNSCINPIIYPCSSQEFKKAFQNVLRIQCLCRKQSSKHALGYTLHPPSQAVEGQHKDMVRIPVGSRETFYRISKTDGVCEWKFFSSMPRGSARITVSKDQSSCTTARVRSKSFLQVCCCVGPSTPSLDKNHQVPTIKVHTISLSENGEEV

[3] = target: T3, Alpha-1D adrenergic receptor (Homo sapiens, UniProt P25100); experiment: Binding affinity against human Alpha-1d adrenergic receptor was evaluated by cloned receptor binding assay
T3 sequence (P25100 whole entry): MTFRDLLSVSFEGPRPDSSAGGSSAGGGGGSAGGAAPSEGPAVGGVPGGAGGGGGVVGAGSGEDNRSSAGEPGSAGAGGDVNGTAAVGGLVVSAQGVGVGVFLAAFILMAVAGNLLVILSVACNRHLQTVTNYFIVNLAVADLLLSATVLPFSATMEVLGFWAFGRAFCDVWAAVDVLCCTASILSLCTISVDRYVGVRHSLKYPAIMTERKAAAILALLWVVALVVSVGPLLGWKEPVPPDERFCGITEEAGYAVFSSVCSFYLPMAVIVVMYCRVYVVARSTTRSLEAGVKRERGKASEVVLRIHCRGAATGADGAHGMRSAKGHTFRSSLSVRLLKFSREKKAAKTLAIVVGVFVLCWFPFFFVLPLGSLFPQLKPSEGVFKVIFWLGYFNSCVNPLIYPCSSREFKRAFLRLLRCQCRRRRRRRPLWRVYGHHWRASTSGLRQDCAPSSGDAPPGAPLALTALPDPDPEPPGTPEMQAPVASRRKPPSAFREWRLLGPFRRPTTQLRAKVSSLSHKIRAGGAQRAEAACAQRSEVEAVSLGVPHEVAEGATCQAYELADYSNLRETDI

[4] = target: Mu-type opioid receptor (Mus musculus, UniProt P42866); experiment: Opioid binding affinity was evaluated using [3H]DAMGO as radioligand
Sequence of Mu-type opioid receptor (P42866 whole entry): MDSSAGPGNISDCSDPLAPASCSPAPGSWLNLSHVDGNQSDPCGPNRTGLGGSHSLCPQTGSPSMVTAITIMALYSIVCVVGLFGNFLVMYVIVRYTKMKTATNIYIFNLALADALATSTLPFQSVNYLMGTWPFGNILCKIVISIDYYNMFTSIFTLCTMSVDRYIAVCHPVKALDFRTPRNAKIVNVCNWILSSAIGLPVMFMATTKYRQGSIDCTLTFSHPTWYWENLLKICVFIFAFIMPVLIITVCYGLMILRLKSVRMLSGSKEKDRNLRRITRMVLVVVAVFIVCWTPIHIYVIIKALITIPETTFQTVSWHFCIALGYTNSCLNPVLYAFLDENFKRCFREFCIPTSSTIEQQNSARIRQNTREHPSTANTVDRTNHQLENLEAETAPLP

SMILES: CCOC(=O)[C@H]1CN(CCCCN2C(=O)c3cc(Cl)ccc3S2(=O)=O)CC[C@H]1c1ccccc1
- Ki [1]: > 2 µM
- Ki [2]: 0.098 µM
- Ki [3]: 1.1 µM

SMILES: COC(=O)C1(c2ccccc2)CCN(CCCCN2C(=O)c3cc(Cl)ccc3S2(=O)=O)CC1
- Ki [1]: 2.2 µM
- Ki [2]: 0.044 µM
- Ki [3]: 2 µM

SMILES: CCOC(=O)[C@@H]1CN(CCCCN2C(=O)c3cc(Cl)ccc3S2(=O)=O)CC[C@@H]1c1ccccc1
- Ki [1]: 0.17 µM
- Ki [2]: 0.00051 µM
- Ki [3]: 0.48 µM

SMILES: CCOC(=O)[C@H]1CNCC[C@H]1c1ccccc1
- Ki [4]: 12 µM

SMILES: CCOC(=O)[C@@H]1CNCC[C@@H]1c1ccccc1
- Ki [4]: 7.6 µM

SMILES: CCOC(=O)C1CN(CCCCN2C(=O)c3cc(Cl)ccc3S2(=O)=O)CCC1c1ccccc1 (racemic)
- Ki [1]: 0.94 µM
- Ki [2]: 0.003 µM
- Ki [3]: 1.8 µM

SMILES: CCOC(=O)C1CNCCC1c1ccccc1 (racemic)
- Ki [4]: 24 µM

SMILES: CCOC(=O)[C@H]1CN(CCCCN2C(=O)c3cc(Cl)ccc3S2(=O)=O)CC[C@@H]1c1ccccc1 (racemic)
- Ki [1]: 1.4 µM
- Ki [2]: 0.1 µM
- Ki [3]: 0.32 µM

SMILES: O=C1c2ccccc2S(=O)(=O)N1CCCCN1CCN(c2ncccn2)CC1 [IPSAPIRONE]
- Ki [1]: 0.22 µM
- Ki [2]: 0.087 µM
- Ki [3]: 0.046 µM
